Source: US11596639B2, “Substituted indole Mcl-1 inhibitors” (Vanderbilt University, priority 2016, dated 2023)
Read-outs that look alike come from different tables or passages of the source.

How the values were obtained:
Mcl-1 = Mcl-1 (Homo sapiens (Human), UniProt Q07820); assay: Fluorescence polarization anisotropy (FPA) competition assay, FITC-Bak or FITC-Bim BH3 peptide; type: binding; details: read-out: Ki for Inhibition of Mcl-1 by FPA assay
[1] = system: H929 human cancer cell lines; assay: Cellular viability / proliferation (Cell TiterGlo, 72 h); type: cell-based
Summary of the method: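 1,000 cells/well, 10% FBS medium; compound added at 24 h, 2-fold dilutions from 50 μM top, DMSO <1% final. 72 h exposure, CellTiterGlo 30 min RT dark, luminescence read. IC50 by 4-parameter fit.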

[2] = Homo sapiens, NCI-H929, 72 h, read-out: GI50 on cellular proliferation of H929 human cancer cell lines, H929 cells, 72 h, Cell TiterGlo, 10% FBS

Sequence of Mcl-1 (Q07820 172-327): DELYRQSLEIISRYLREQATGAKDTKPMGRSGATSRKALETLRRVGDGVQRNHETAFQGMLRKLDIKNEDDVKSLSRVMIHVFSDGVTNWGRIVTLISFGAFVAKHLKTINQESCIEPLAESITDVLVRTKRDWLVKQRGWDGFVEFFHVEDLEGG

SMILES | Ki (Mcl-1) | GI50 [1, 2] | GI50 ([1]; read-out: GI50 on cellular proliferation of H929 human cancer cell lines, H929 cells, 72 h, Cell TiterGlo, 10% FBS)
Cc1cc(OCCCc2c3n(c4c(-c5c(C)nn(CCN6CCCC6)c5C)c(Cl)ccc24)[C@H](C)CN(c2cccc4c2cc(C(=O)O)n4C)C3=O)cc(C)c1Cl [Example 318, (R)-4-(7-Chloro-10-(3-(4-chloro-3,5-dimethylphenoxy)propyl)-6-(3,5-dimethyl-1-(2-(pyrrolidin-1-yl)ethyl)-1H-pyrazol-4-yl)-4-methyl-1-oxo-3,4-dihydropyrazino[1,2-a]indol-2(1H)-yl)-1-methyl-1H-indole-2-carboxylic acid] | 0.0015 µM | 0.82 µM | –
Cc1cc(N2C[C@@H](C)n3c(c(CCCOc4cc(C)c(Cl)c(C)c4)c4ccc(Cl)c(-c5c(C)nn(C)c5C)c43)C2=O)c2c(c1)c(C)c(C(=O)O)n2C [Example 336, (R)-7-(7-Chloro-10-(3-(4-chloro-3,5-dimethylphenoxy)propyl)-4-methyl-1-oxo-6-(1,3,5-trimethyl-1H-pyrazol-4-yl)-3,4-dihydropyrazino[1,2-a]indol-2(1H)-yl)-1,3,5-trimethyl-1H-indole-2-carboxylic acid] | < 0.001 µM | 0.25 µM | –
Cc1cc(OCCCc2c3n(c4c(-c5c(C)n[nH]c5C)c(Cl)ccc24)[C@H](C)CN(c2cn(C)c4cc(C(=O)O)ccc24)C3=O)cc(C)c1Cl [Example 109, (R)-3-(7-chloro-10-(3-(4-chloro-3,5-dimethylphenoxy)propyl)-6-(3,5-dimethyl-1H-pyrazol-4-yl)-4-methyl-1-oxo-3,4-dihydropyrazino[1,2-a]indol-2(1H)-yl)-1-methyl-1H-indole-6-carboxylic acid] | < 0.001 µM | 0.71 µM | –
Cc1cc(OCCCc2c3n(c4c(-c5c(C)nn(C)c5C)c(Cl)ccc24)[C@H](C)CN(c2ccc4c(c2)cc(C(=O)O)n4C)C3=O)cc(C)c1Cl [Example 114, (R)-5-(7-Chloro-10-(3-(4-chloro-3,5-dimethylphenoxy)propyl)-4-methyl-1-oxo-6-(1,3,5-trimethyl-1H-pyrazol-4-yl)-3,4-dihydropyrazino[1,2-a]indol-2(1H)-yl)-1-methyl-1H-indole-2-carboxylic acid] | < 0.001 µM | 0.84 µM | –
CCn1cc(N2C[C@@H](C)n3c(c(CCCOc4cc(C)c(Cl)c(C)c4)c4ccc(Cl)c(-c5c(C)nn(C)c5C)c43)C2=O)c2cccc(C(=O)O)c21 [Example 83, (R)-3-(7-Chloro-10-(3-(4-chloro-3,5-dimethylphenoxy)propyl)-4-methyl-1-oxo-6-(1,3,5-trimethyl-1H-pyrazol-4-yl)-3,4-dihydropyrazino[1,2-a]indol-2(1H)-yl)-1-ethyl-1H-indole-7-carboxylic acid] | < 0.001 µM | 1.1 µM | –
COc1ccc(N2C[C@@H](C)n3c(c(CCCOc4cc(C)c(Cl)c(C)c4)c4ccc(Cl)c(-c5c(C)ncnc5C)c43)C2=O)c2c1cc(C(=O)O)n2Cc1ccccn1 [Example 302, 7-[(4R)-7-chloro-10-[3-(4-chloro-3,5-dimethyl-phenoxy)propyl]-6-(4,6-dimethylpyrimidin-5-yl)-4-methyl-1-oxo-3,4-dihydropyrazino[1,2-a]indol-2-yl]-4-methoxy-1-(2-pyridylmethyl)indole-2-carboxylic acid] | < 0.001 µM | < 0.2 µM | –
Cc1cc(OCCCc2c3n(c4c(-c5c(C)nn(C)c5C)c(Cl)ccc24)[C@H](C)CN(c2cn(C)c4ccc(C(=O)Nc5cccnc5)cc24)C3=O)cc(C)c1Cl [Example 291, 3-[(4R)-7-chloro-10-[3-(4-chloro-3,5-dimethyl-phenoxy)propyl]-4-methyl-1-oxo-6-(1,3,5-trimethylpyrazol-4-yl)-3,4-dihydropyrazino[1,2-a]indol-2-yl]-1-methyl-N-(3-pyridyl)indole-5-carboxamide] | 0.0011 µM | 1 µM | –
Cc1cc(OCCCc2c3n(c4c(-c5c(C)nn(C)c5C)c(Cl)ccc24)[C@H](C)CN(c2cn(C)c4ccc(-c5cnccn5)cc24)C3=O)cc(C)c1Cl [Example 430, (R)-7-Chloro-10-(3-(4-chloro-3,5-dimethylphenoxy)propyl)-4-methyl-2-(1-methyl-5-(pyrazin-2-yl)-1H-indol-3-yl)-6-(1,3,5-trimethyl-1H-pyrazol-4-yl)-3,4-dihydropyrazino[1,2-a]indol-1(2H)-one] | 0.0019 µM | 1.4 µM | –
Cc1cc(OCCCc2c3n(c4c(-c5c(C)nn(C)c5C)c(Cl)ccc24)[C@H](C)CN(c2cc(OCCN4CCOCC4)cc4cc(C(=O)O)n(C)c24)C3=O)cc(C)c1Cl [Example 458, (R)-7-(7-Chloro-10-(3-(4-chloro-3,5-dimethylphenoxy)propyl)-4-methyl-1-oxo-6-(1,3,5-trimethyl-1H-pyrazol-4-yl)-3,4-dihydropyrazino[1,2-a]indol-2(1H)-yl)-1-methyl-5-(2-morpholinoethoxy)-1H-indole-2-carboxylic acid] | 0.0012 µM | 0.29 µM | –
Cc1cc(OCCCc2c3n(c4c(-c5c(C)nn(C)c5C)c(Cl)ccc24)[C@H](C)CN(c2cn(C)c4ccc(-c5nnc(C6CC6)o5)cc24)C3=O)cc(C)c1Cl [Example 423, (R)-7-Chloro-10-(3-(4-chloro-3,5-dimethylphenoxy)propyl)-2-(5-(5-cyclopropyl-1,3,4-oxadiazol-2-yl)-1-methyl-1H-indol-3-yl)-4-methyl-6-(1,3,5-trimethyl-1H-pyrazol-4-yl)-3,4-dihydropyrazino[1,2-a]indol-1(2H)-one] | 0.0023 µM | 1.7 µM | –
Cc1cc(OCCCc2c3n(c4c(-c5c(C)nn(C)c5C)c(Cl)ccc24)[C@H](C)CN(c2nn(C)c4cccc(C(=O)O)c24)C3=O)cc(C)c1Cl [Example 175, (R)-3-(7-Chloro-10-(3-(4-chloro-3,5-dimethylphenoxy)propyl)-4-methyl-1-oxo-6-(1,3,5-trimethyl-1H-pyrazol-4-yl)-3,4-dihydropyrazino[1,2-a]indol-2(1H)-yl)-1-methyl-1H-indazole-4-carboxylic acid] | < 0.001 µM | – | 0.34 µM
CC(=O)Nc1ccc2c(c1)c(N1C[C@@H](C)n3c(c(CCCOc4cc(C)c(Cl)c(C)c4)c4ccc(Cl)c(-c5c(C)nn(C)c5C)c43)C1=O)cn2C [Example 257, N-[3-[(4R)-7-chloro-10-[3-(4-chloro-3,5-dimethyl-phenoxy)propyl]-4-methyl-1-oxo-6-(1,3,5-trimethylpyrazol-4-yl)-3,4-dihydropyrazino[1,2-a]indol-2-yl]-1-methyl-indol-5-yl]acetamide] | 0.0023 µM | 0.47 µM | –
Cc1cc(OCCCc2c3n(c4c(-c5c(C)nn(C)c5C)c(Cl)ccc24)[C@H](C)CN(c2cn4cccc(C(=O)O)c4n2)C3=O)cc(C)c1Cl [Example 112, (R)-2-(7-chloro-10-(3-(4-chloro-3,5-dimethylphenoxy)propyl)-4-methyl-1-oxo-6-(1,3,5-trimethyl-1H-pyrazol-4-yl)-3,4-dihydropyrazino[1,2-a]indol-2(1H)-yl)imidazo[1,2-a]pyridine-8-carboxylic acid] | 0.0033 µM | 5.3 µM | –
Cc1cc(N2C[C@@H](C)n3c(c(CCCOc4cc(C)c(Cl)c(C)c4)c4ccc(Cl)c(-c5c(C)nn(C)c5C)c43)C2=O)c2c(c1)cc(C(=O)O)n2CC1CCOCC1 [Example 324, (R)-7-(7-Chloro-10-(3-(4-chloro-3,5-dimethylphenoxy)propyl)-4-methyl-1-oxo-6-(1,3,5-trimethyl-1H-pyrazol-4-yl)-3,4-dihydropyrazino[1,2-a]indol-2(1H)-yl)-5-methyl-1-((tetrahydro-2H-pyran-4-yl)methyl)-1H-indole-2-carboxylic acid] | < 0.001 µM | 0.61 µM | –
